According to PubChem BioAssay (NCI):
Values joined by “and” are separate entries in the source; they are usually repeats but may differ in a detail not shown here. Identical values can stand only once.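 How tested: cells in 96-well plates exposed to compound for 48 hours at five concentrations. GI50 marks 50% less growth. TGI is the concentration that stops growth completely.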

How the values were obtained:
Experiment in all cases: NCI anticancer screen, dose series, 48 h
[1] = test system: UACC-257 melanoma
[2] = test system: CAKI-1 renal
[3] = test system: UACC-62 melanoma
[4] = test system: NCI-H522 lung
[5] = test system: SK-MEL-2 melanoma
[6] = test system: SF-268 CNS
[7] = test system: NCI/ADR-RES ovarian
[8] = test system: PC-3 prostate
[9] = test system: ACHN renal
[10] = test system: SR leukemia

Compound: NC(Cc1cc(I)c(O)c(I)c1)C(=O)O (stereo unspecified)
- TGI [1]: > 354 µM
- TGI [2]: 249 µM
- TGI [3]: > 357 µM
- TGI [4]: 130 µM
- TGI [5]: > 500 µM
- TGI [6]: > 500 µM
- TGI [7]: > 316 µM

Compound: COc1cc2cc(C(=O)N3CC(CCl)c4c3cc(N)c3ccccc43)[nH]c2cc1OCCN(C)C (stereo unspecified)
- TGI [1]: 16.8 µM
- TGI [8]: 5.5 µM
- TGI [2]: 0.094 µM
- TGI [3]: 0.00871 µM
- TGI [5]: 0.00726 µM
- TGI [6]: 0.712 µM
- TGI [7]: 0.175 µM

Compound: O=C(Nn1c(-c2ccccc2)nc2ccccc2c1=O)c1ccccn1
- TGI [1]: > 100 µM
- TGI [9]: > 100 µM
- TGI [10]: > 100 µM
- TGI [8]: > 100 µM
- TGI [3]: > 100 µM
- TGI [4]: > 100 µM
- TGI [6]: > 100 µM
- TGI [7]: > 100 µM

Compound: CCCn1c(C23CC4CC(CC(C4)C2)C3)nc2ccc(Cl)cc2c1=O
- TGI [1]: > 100 µM
- TGI [9]: 47.9 µM
- TGI [8]: > 100 µM
- TGI [2]: > 100 µM
- TGI [3]: > 100 µM
- TGI [4]: > 100 µM
- TGI [5]: > 100 µM
- TGI [6]: > 100 µM
- TGI [7]: > 100 µM

Compound: Cc1nnc2cc(C(=O)O)c3ccccc3n2c1=O
- TGI [1]: > 10 µM
- TGI [10]: > 10 µM
- TGI [8]: > 10 µM
- TGI [2]: > 10 µM
- TGI [3]: > 10 µM
- TGI [4]: > 10 µM
- TGI [5]: > 10 µM
- TGI [6]: > 10 µM
- TGI [7]: > 10 µM

Compound: CCOc1ccc2[nH]c3c(C)c4cc[n+](C)cc4c(C)c3c2c1
- TGI [1]: 13.7 µM and 27.8 µM
- GI50 [9]: 6.04 µM and 17.5 µM
- TGI [9]: > 100 µM
- GI50 [10]: 1.13 µM and 2.69 µM
- TGI [10]: 13.7 µM and > 62.5 µM
- TGI [2]: > 35.3 µM
- TGI [3]: 5.48 µM and 12.3 µM
- TGI [4]: 3.05 µM and 3.57 µM
- TGI [5]: 2.53 µM and 8.79 µM
- TGI [6]: 0.605 µM and 1.18 µM

Compound: CNC(=O)CCC(NC(C)=O)C(=O)NC(Cc1ccc(NC(=O)CCCCC(C)=O)cc1)C(=O)NC(CCC(=O)NC)C(=O)NC (stereo unspecified)
- TGI [9]: > 100 µM
- TGI [8]: > 100 µM
- TGI [2]: > 100 µM
- TGI [3]: > 100 µM
- TGI [4]: > 100 µM
- TGI [6]: > 100 µM
- TGI [7]: > 100 µM

Compound: S=C(N/N=C\C=N/NC(=S)N1CCCCCC1)N1CCCCCC1
- TGI [1]: > 100 µM
- TGI [9]: > 100 µM
- TGI [8]: > 100 µM
- TGI [2]: > 100 µM
- TGI [3]: > 100 µM
- TGI [4]: > 100 µM
- TGI [5]: > 100 µM
- TGI [6]: > 100 µM
- TGI [7]: > 85.9 µM

Compound: Cc1nc(C)c(C(=O)Nc2cccc3c2C(=O)NC3=O)cc1C(=O)Nc1cccc2c1C(=O)NC2=O
- TGI [1]: > 100 µM
- TGI [9]: > 100 µM
- TGI [10]: > 100 µM
- TGI [2]: > 100 µM
- TGI [3]: > 100 µM
- TGI [4]: > 100 µM
- TGI [5]: > 100 µM
- TGI [6]: > 100 µM

Compound: COC(=O)[C@H](C)N1C(=O)N[C@@H](C(C)C)C1=O
- TGI [1]: > 100 µM
- TGI [9]: > 100 µM
- TGI [10]: > 100 µM
- TGI [8]: > 100 µM
- TGI [2]: > 100 µM
- TGI [3]: > 100 µM
- TGI [4]: > 100 µM
- TGI [5]: > 100 µM
- TGI [7]: > 100 µM

Compound: CC(C)CCC[C@@H](C)[C@H]1CC[C@H]2[C@@H]3CC=C4C[C@@H](OC(=O)c5cccc6c(=O)c7ccccc7[nH]c56)CC[C@]4(C)[C@H]3CC[C@]12C
- TGI [1]: > 75 µM
- TGI [9]: > 75 µM
- TGI [10]: > 75 µM
- TGI [8]: > 75 µM
- TGI [3]: > 75 µM
- TGI [4]: > 75 µM
- TGI [5]: > 75 µM
- TGI [6]: > 75 µM
- TGI [7]: > 75 µM

Compound: CC1=CC(O)C(O)C2(C)C1CC1OC(=O)C(O)C3C(C)C(O)C4(O)OCC13C42 (stereo unspecified)
- TGI [1]: 467 µM
- TGI [2]: 205 µM
- TGI [3]: 341 µM
- TGI [4]: 214 µM
- TGI [5]: 196 µM
- TGI [6]: 444 µM
- TGI [7]: > 625 µM

Compound: Cc1ccc2nc3c(C)c(Cl)c(=O)cc-3sc2c1
- TGI [1]: 53.8 µM
- TGI [9]: 87.3 µM
- TGI [10]: > 31.6 µM
- TGI [8]: > 100 µM
- TGI [2]: > 100 µM
- TGI [3]: 17.4 µM
- TGI [4]: > 56.1 µM
- TGI [5]: 37.5 µM
- TGI [6]: > 100 µM

Compound: COc1ccc(/C=C2\Cc3ccccc3C2=O)cc1OC
- TGI [1]: > 100 µM
- TGI [9]: > 100 µM
- TGI [2]: > 100 µM
- TGI [3]: > 100 µM
- TGI [4]: > 100 µM
- TGI [5]: > 100 µM
- TGI [6]: > 100 µM

Compound: O=C(O)/C=C(/CC(=O)O)C(=O)O
- TGI [1]: > 100 µM
- TGI [9]: 33.3 µM
- TGI [8]: 40.2 µM
- TGI [2]: 54.1 µM
- TGI [3]: 36.7 µM
- TGI [4]: 35.7 µM
- TGI [5]: 41.9 µM
- TGI [6]: 40 µM
- TGI [7]: 46.1 µM

Compound: O=S1(=O)NNC(=NCc2ccc(Cl)cc2)c2ccccc21
- TGI [1]: > 100 µM
- TGI [9]: > 100 µM
- TGI [2]: > 100 µM
- TGI [3]: > 100 µM
- TGI [5]: > 100 µM
- TGI [6]: > 100 µM

Compound: CC(C)(C)N=C1CC(C)(C)c2ccccc2C(=Nc2ccccc2)S1
- TGI [1]: > 100 µM
- TGI [9]: > 100 µM
- TGI [2]: > 100 µM
- TGI [3]: > 100 µM
- TGI [4]: 46.7 µM
- TGI [5]: 99 µM
- TGI [6]: > 100 µM

Compound: CC1(C)COC(c2cccc(C3=NC(C)(C)CO3)c2Br)=N1
- TGI [1]: > 100 µM
- TGI [9]: > 100 µM
- TGI [10]: > 100 µM
- TGI [8]: > 100 µM
- TGI [2]: > 100 µM
- TGI [3]: > 100 µM
- TGI [5]: > 100 µM
- TGI [6]: > 100 µM
- TGI [7]: > 100 µM

Compound: CCCCc1c2c(nc3c1CCc1cc4c(nc1-3)-c1nc3c(c(CCCC)c1CC4)CCC/C3=C\c1ccccc1)/C(=C/c1ccccc1)CCC2
- TGI [1]: > 100 µM
- TGI [10]: > 100 µM
- TGI [2]: > 100 µM
- TGI [3]: > 100 µM
- TGI [4]: > 100 µM
- TGI [5]: > 100 µM
- TGI [6]: > 100 µM

Compound: CS(=O)(=O)OCCN1CCC2(CC1)SSC1(CCN(CCOS(C)(=O)=O)CC1)S2
- TGI [1]: > 100 µM
- TGI [9]: > 100 µM
- TGI [10]: 65.9 µM
- TGI [8]: > 100 µM
- TGI [2]: 44.9 µM
- TGI [3]: > 100 µM
- TGI [5]: > 100 µM
- TGI [6]: 58.1 µM
- TGI [7]: > 100 µM

Compound: N#Cc1c(Nc2ccc(F)cc2)[n+]([O-])c2ccc(Cl)cc2[n+]1[O-]
- TGI [1]: 11.9 µM
- TGI [8]: > 100 µM
- TGI [2]: 20.9 µM
- TGI [3]: 17.2 µM
- TGI [5]: 77.9 µM
- TGI [6]: 14.2 µM
- TGI [7]: 5.37 µM

Compound: COc1ccc(C(O)c2ccc3c(c2)OCO3)cc1 (stereo unspecified)
- TGI [1]: > 100 µM
- TGI [9]: > 100 µM
- TGI [10]: > 100 µM
- TGI [8]: > 100 µM
- TGI [2]: > 100 µM
- TGI [3]: > 100 µM
- TGI [4]: > 100 µM
- TGI [6]: > 100 µM
- TGI [7]: > 100 µM

Compound: O=C(c1ccccc1)c1c(C(F)(F)F)n([O-])c2ccccc2[n+]1=O
- TGI [1]: 3.5 µM
- TGI [10]: 0.413 µM
- TGI [8]: 2.27 µM
- TGI [2]: 1.94 µM
- TGI [3]: 3.52 µM
- TGI [4]: 2 µM
- TGI [5]: 3.43 µM
- TGI [7]: > 100 µM

Compound: NC(N)=N/N=C/c1c(-c2ccc([N+](=O)[O-])cc2)nc2sccn12
- TGI [1]: 3.65 µM
- TGI [9]: 7.27 µM
- TGI [8]: 2.93 µM
- TGI [2]: 6.93 µM
- TGI [3]: 3.22 µM
- TGI [4]: 3.83 µM
- TGI [5]: 3.33 µM
- TGI [7]: > 100 µM

Compound: CC1(C)O[C@@H](CO)[C@H]([C@@]23OC[C@H]4OC(C)(C)OC4[C@@H]2OC(C)(C)O3)O1 (stereo partly specified)
- TGI [9]: > 100 µM
- TGI [10]: > 100 µM
- TGI [8]: > 100 µM
- TGI [4]: > 100 µM
- TGI [5]: > 100 µM
- TGI [6]: > 100 µM
- TGI [7]: > 100 µM
